The values below come from patent publication US10849901B2, “Arf6 inhibitors and methods of synthesis and use thereof” (Navigen, Inc., priority 2014, dated 2020).

For orientation: IC50 means the point on the concentration scale where inhibition reaches its midpoint. What is called inhibition is how much of the control response was suppressed.

The test system of one series is LPS-induced acute lung injury. The series can be described thus: LPS-induced acute lung injury in mice (BALF analysis). The settings on record: 24 hours after LPS, Compound 38 60 mg/kg, dexamethasone 5 mg/kg. The series is classed as in vivo. As for the experimental part: In the experiment, LPS (5 mg/kg) was given by intra-tracheal instillation. Dexamethasone (5 mg/kg) was given as a positive control 2 hours after the LPS. Bronchoalveolar fluid (BALF) was analyzed for cell count and protein 24 hours after the LPS.
`C[C@@H]1C[C@H]2[C@@H]3CCC4=CC(=O)C=C[C@]4(C)[C@@]3(F)[C@@H](O)C[C@]2(C)[C@@]1(O)C(=O)CO` [dexamethasone, Dexamethasone, reference compound]: the “number of cells in the lung fluid (BALF)” value is reported as “reduced the number of cells” and the “protein concentration in the lung fluid (BALF)” value is on record as “reduced”.

In a further series the target is Arf6 (Homo sapiens (Human), UniProt P62330). The series is described as follows: Fluorometric assay for Arf6 nucleotide exchange catalyzed by ARNO Sec7 domain (GTP-BODIPY FL). It counts as biochemical. The settings on record: 20 nM Arf6 assay; read-out: IC50 (μM) 20 nM Arf6. How it is done: FIGS. 1A-1D: Fluorometric high throughput assay for Arf6 nucleotide exchange catalyzed by ARNO Sec7 domain. FIG. 1A: Principle of the assay. FIG. 1B: SDS-PAGE analysis of N-terminally His-tagged Arf6(14-175) and ARNO(50-255) purified from the E. coli cultures by immobilized metal affinity chromatography. FIG. 1C: Correlation between signal intensity and ARNO concentration. The assay was performed using 50 mM Tris-HCl, pH 7.5, 1 mM MgCl2, 0.01% TX-100, 1% DMSO, 50 nM GTP-BODIPY FL, supplemented with ARNO-Sec7 at indicated concentrations in the absence or in the presence of 0.2 μM Arf6-GDP. Fluorescence intensities were monitored using a Synergy 4 plate reader (BioTek) at the excitation and emission wavelengths of 490 nm and 520 nm, respectively. FIG. 1D: Time course of apparent inhibitory potency of GDP. The assay was performed in automated mode using a Matrix PlateMate liquid handler.
Chain of Arf6 (P62330 14-175): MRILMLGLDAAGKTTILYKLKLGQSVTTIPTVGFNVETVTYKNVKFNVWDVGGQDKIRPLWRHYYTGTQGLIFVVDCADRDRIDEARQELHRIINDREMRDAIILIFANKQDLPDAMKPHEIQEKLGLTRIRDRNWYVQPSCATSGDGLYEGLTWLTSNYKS
The primary biochemical assay uses a fluorometric assay for monitoring the replacement of bound nucleotide with a fluorogenic GTP derivative bearing a BODIPY FL moiety, allowing for the identification of compounds that can inhibit this exchange (see FIG. 1A). In certain embodiments, the methods disclosed herein may exploit the reduction of intramolecular fluorescence quenching of the modified nucleotide upon its binding to the target protein (see, e.g., McEwen D P, Gee K R, Kang H C, Neubig R R. Fluorescent BODIPY-GTP analogs: real-time measurement of nucleotide binding to G proteins. Anal Biochem. 2001 Apr. 1; 291(1): 109-17).
The fluorometric assay formatted for 96-well microtiter plates has passed quality control based on the following criteria: i) S/B ratio of 4-fold and Z′-factor of 0.61; ii) linear correlation between signal intensity and ARNO concentration (see FIG. 1C); iii) sufficiently reproducible inhibitory effects of the reference inhibitor GDP for assay durations up to at least 1 hour (see FIG. 1D); and iv) lack of apparent fluorescence quenchers among 400 randomly selected compounds. The assay is amenable to automation with a throughput of approximately 5,000 data points per 8 hours.
Consider `CCS(=O)(=O)Nc1ccc(-c2cc(=O)n3nc(C)c(-c4ccc(Cl)cc4)c3[nH]2)cc1` [Compound 96], for which the half-inhibitory concentration (IC50) is 10 µM.

In the case of `CCNC(=O)Nc1ccc(-c2cc(=O)n3nc(C)c(-c4ccc(Cl)cc4)c3[nH]2)cc1` [Compound 97], the IC50 was 11 µM.

Turning to `Cc1c(Cc2ccccc2)nn2c(=O)cc(-c3ccc([N+](=O)[O-])cc3)[nH]c12` [Compound 98], the IC50 stood at 11 µM.

With `O=[N+]([O-])c1ccc(C2=CC(O)n3nc(-c4cccc(Cl)c4)cc3N2)cc1` (stereo not drawn) [Compound 100], the concentration for half-maximal inhibition (IC50) is 13 µM.

Regarding `Cc1nn2c(=O)cc(-c3ccc([N+](=O)[O-])cc3)[nH]c2c1-c1ccc(OC(F)(F)F)cc1` [Compound 101], the IC50 came out at 13 µM.

Regarding `O=c1cc(Cc2cccnc2)[nH]c2c(-c3ccc(Cl)cc3)c(C(F)(F)F)nn12` [Compound 102], the half-inhibitory concentration (IC50) was found to be 14 µM.

Turning to `Cc1nn2c(=O)cc(C3CCCCC3)[nH]c2c1-c1ccc(Cl)cc1` [Compound 103], the IC50 came out at 14 µM.

For the compound `O=c1cc(-c2ccc([N+](=O)[O-])cc2)[nH]c2c(-c3ccc(Cl)cc3)c(C3CC3)nn12` [Compound 104], the half-maximal inhibitory concentration (IC50) worked out at 14 µM.

`Cc1nn2c(=O)cc(C3CCCC3)[nH]c2c1-c1ccc(Cl)cc1` [Compound 106]: the IC50 came out at 16 µM.

With `O=C(O)c1ccc(-c2cc(=O)n3nc(C4CC4)c(-c4ccc(Cl)cc4)c3[nH]2)cc1` [Compound 107], the concentration for half-maximal inhibition (IC50) worked out at 16 µM.

As for `N#Cc1ccc(-c2cc(=O)c3nc(C4CC4)c(-c4ccc(Cl)cc4)n3[nH]2)cc1` [Compound 108], the IC50 came out at 16 µM.

For the compound `Cc1nn2c(=O)cc(-c3ccc([N+](=O)[O-])cc3)[nH]c2c1C1CCCC1` [Compound 110], the concentration for half-maximal inhibition (IC50) was found to be 19 µM.

As to `O=C(Nc1cccc(-c2cc(=O)n3nc(C(F)(F)F)c(-c4ccc(Cl)cc4)c3[nH]2)c1)c1ccccc1` [Compound 111], the IC50 was found to be 20 µM.

In the case of `N#Cc1ccc(-c2cc(=O)n3nc(C4CCOCC4)c(-c4ccc(Cl)cc4)c3[nH]2)cc1` [Compound 112], the half-maximal inhibitory concentration (IC50) is 20 µM.

`CCC(C)(C)C1CCc2c(sc3c2C(=O)NC(c2cc(OC)c(O)c([N+](=O)[O-])c2)N3)C1` (stereo not drawn) [Compound 113]: the half-maximal inhibitory concentration (IC50) turned out to be 0.56 µM.

As for `N#Cc1c(=O)n(-c2ccc(Cl)cc2)nc2c(=O)n(N)c(-c3ccccc3Cl)cc12` [Compound 114], the IC50 worked out at 1.1 µM.

`O=C(Nc1cc(Cl)c(-c2cccc3cccnc23)c(Cl)c1)c1cc(Cl)cc(Br)c1O` [Compound 119]: the half-maximal inhibitory concentration (IC50) worked out at 2.1 µM.

Take `O=c1nc(/C=C/c2ccc(-c3cc(Cl)cc(Cl)c3)o2)cc(C(F)(F)F)[nH]1` [Compound 120]: the IC50 is 3.4 µM.

On to `O=C1NC(=S)S/C1=C/c1ccc(N2N=C(c3ccccc3)CC2c2ccccc2)cc1` (stereo not drawn) [Compound 121], for which the IC50 was determined as 3.7 µM.

Take `Nc1scc2c(-c3nnc(Nc4ccccc4)s3)nn(-c3ccc([N+](=O)[O-])cc3)c(=O)c12` [Compound 123]: the IC50 is 5.1 µM.

As to `O=C1NC(=O)c2ccccc2/C1=C/c1cnn(Cc2ccccc2)c1` [Compound 124], the half-maximal inhibitory concentration (IC50) was found to be 5.4 µM.

For `COc1ccc(C(=O)Nc2cccc(/C=C3\C(=O)NC(=O)c4ccccc43)c2)cc1` [Compound 125], the IC50 was determined as 6.5 µM.

In the case of `Cn1cc(/C=C(\CC(=O)O)C2Nc3ccccc3S2)c(-c2ccc3c(c2)OCCCO3)n1` (stereo not drawn) [Compound 128], the IC50 is 8.4 µM.

In the case of `Cc1ccc(C(=O)OCc2cc(=O)n3cc(Br)ccc3n2)cn1` [Compound 130], the concentration for half-maximal inhibition (IC50) came to 9.9 µM.

Consider `Cc1ccn2c(=O)cc(CSc3nc(C)cc(=O)[nH]3)nc2c1` [Compound 131], for which the half-maximal inhibitory concentration (IC50) worked out at 11 µM.

As for `CCCc1cc(=O)[nH]c(SCc2cc(=O)n3cc(Br)ccc3n2)n1` [Compound 132], the IC50 was 30 µM.

As for `Cn1c(N)c(C(=O)COC(=O)c2ccccc2SCc2ccc(C#N)cc2)c(=O)[nH]c1=O` [Compound 134], the IC50 was found to be 13 µM.

`O=C1/C(=N/Nc2nc3ccccc3s2)C(c2ccccc2)=NN1c1nc(-c2ccccc2)cs1` [Compound 135]: the IC50 was 16 µM.

Take `Fc1ccc(C2CC(c3cccs3)=NN2c2nc(-c3ccc(-c4ccccc4)cc3)cs2)cc1` (stereo not drawn) [Compound 136]: the IC50 was 16 µM.

In the case of `CSc1nnc2c(n1)OC(c1cc(O)ccc1[N+](=O)[O-])Nc1ccccc1-2` (stereo not drawn) [Compound 137], the half-maximal inhibitory concentration (IC50) was determined as 17 µM.

In the case of `O=c1[nH]c(CSc2ncnc3sccc23)nc2ccsc12` [Compound 138], the IC50 worked out at 17 µM.

In the case of `O=C(COC(=O)c1cc2ccccc2[nH]1)NCCSc1ccc(Cl)cc1` [Compound 139], the IC50 came to 19 µM.

As to `Fc1ccc(C2=CCN(c3nc(-c4ccncc4)nc4c3CNC4)CC2)cc1` [Compound 142], the concentration for half-maximal inhibition (IC50) was 1.2 µM.

The series is the same for the next values; noted with them: 20 nM assay; 10 μM concentration.
For the compound `c1nc(C2CCCNC2)cc(N2C[C@@H]3C[C@@H]4C[C@H](C3)N[C@@H]2C4)n1` (stereo partly drawn) [Compound 143], the inhibition at 10 µM is approximately 31%.

Turning to `CCCCC1CCCN1c1cc(C2CCNCC2)ncn1` (stereo not drawn) [Compound 144], the inhibition at 10 µM was approximately 35%.

Still in this series, the particulars now being: 200 nM Arf6 assay; read-out: IC50 (μM) 200 nM Arf6.
Take `O=c1cc(-c2ccccc2)[nH]c2c(-c3ccccc3)c(Cc3ccccc3)nn12` [Compound 95]: the IC50 was 9.4 µM.

Take `O=c1cc(Cc2ccccc2)[nH]c2c(-c3ccc(Cl)cc3)c(Cc3ccccc3)nn12` [Compound 99]: the IC50 came to 11 µM.

Turning to `O=[N+]([O-])c1ccc(C2=CC(O)n3nc(-c4cccc(Cl)c4)cc3N2)cc1` (stereo not drawn) [Compound 100], the IC50 worked out at 10 µM.

`O=c1cc(Cc2cccnc2)[nH]c2c(-c3ccc(Cl)cc3)c(C(F)(F)F)nn12` [Compound 102]: the IC50 was determined as 17 µM.

Regarding `Cc1nn2c(=O)cc(-c3ccc(Cl)cc3)[nH]c2c1-c1ccc(F)cc1` [Compound 105], the 50% inhibitory concentration (IC50) amounted to 15 µM.

Take `COc1ccc(-c2c(C)nn3c(=O)cc(-c4ccc([N+](=O)[O-])cc4)[nH]c23)cc1` [Compound 109]: the IC50 turned out to be 17 µM.

For `Cc1cccc(N2C(=O)/C(=C/c3cc([N+](=O)[O-])cc(Br)c3O)SC2=S)c1` [Compound 115], the IC50 was found to be 1.1 µM.

Consider `CCOc1ccc(-c2nn(-c3ccccc3)cc2/C=C2\SC(=S)N(CCC(=O)O)C2=O)cc1C` [Compound 116], for which the IC50 worked out at 1.4 µM.

On to `N#Cc1c(SCc2cc(=O)[nH]c(=O)[nH]2)nc2c(c1-c1ccccc1)CC/C2=C\c1ccccc1` [Compound 117], for which the IC50 was found to be 1.5 µM.

For `Cc1cccc(-n2c(/C=C/c3cccnc3)nc3ccccc3c2=O)c1` [Compound 122], the IC50 came to 4.7 µM.

Take `CC(C)(C)c1ccc(S(=O)(=O)Nc2ccc(O)c3ccccc23)cc1` [Compound 126]: the concentration for half-maximal inhibition (IC50) is 6.7 µM.

`O=C(O)c1ccc(C2Nc3c(Br)cccc3C3C=CCC32)cc1` (stereo not drawn) [Compound 127]: the IC50 was 8 µM.

On to `O=c1c2c(-c3ccc(Cl)cc3)csc2[nH]c(=S)n1Cc1ccccc1` [Compound 129], for which the concentration for half-maximal inhibition (IC50) was determined as 9.7 µM.

Consider `O=c1c(-c2cccc3ccccc23)c(C(F)(F)F)oc2cc(O)ccc12` [Compound 140], for which the IC50 was 29 µM.

Consider `O=C1c2ccccc2C(=O)C1C1=NC2c3ccccc3OC2S1` (stereo not drawn) [Compound 141], for which the IC50 was determined as 31 µM.

The series is the same for the next values; noted with them: IC50 (μM) 200 nM Arf6, 200 nM Arf6 assay.
With `O=C1NC(=S)N(c2cccc(Cl)c2)C(=O)/C1=C/c1cccn1-c1ccc(Cl)cc1` [Compound 118], the 50% inhibitory concentration (IC50) was 1.8 µM.

The next series has as its system VEGF-induced retinal permeability. The series can be described thus: VEGF-induced retinal permeability in mice (Evans blue dye). The series is classed as in vivo. The settings on record: mice, 500 ng single intraocular injection with VEGF 50 ng (FIG. 6). As for the experimental part: In the experiment, VEGF (50 ng) and either Compound 38 or 65 (500 ng) or NAV-3745 (500 ng) were given to mice in a single intraocular injection. Evans blue dye (EBD) was given via IV approximately 6 hours after the injection, and the retinas were harvested after an additional 2 hours. Retinal permeability was measured on Day 2 after an overnight extraction of EBD in formamide, at OD 620-740 nm.
In the experiment, VEGF (50 ng) and the test compound were given to mice in a single intraocular injection. Avastin was given at a dose of 20 μg, Compound 38 at either 50 ng or 500 ng (as noted in FIG. 7), and SU4312 at 5 μg. As with the previous experiment, Evans blue dye (EBD) was given via IV approximately 6 hours after the injection, and the retinas were harvested after an additional 2 hours. Retinal permeability was measured on Day 2 after an overnight extraction of EBD in formamide, at OD 620-740 nm.
For the compound `COc1ccc(-c2c(Cc3ccccc3)nn3c(=O)cc(C)[nH]c23)cc1` [NAV-3745, reference compound], the VEGF-induced retinal permeability entry is “no effect”.
